Reference: patent US5298523A, “Method for treating transplant patients using mycalamide compounds” (priority 1992, dated 1994)
In brackets after ≈: the same amount, converted by molar mass. Like-named read-outs stand apart in the source and are kept apart here.

Tests used:
murine splenocytes = assay: Lymphocyte viability assay (LCV, MTT) on murine splenocytes; format: cell-based; details: mitogen study, in words
Experimental: (§1) Preparation of splenocyte cell suspensions. […] The resulting supernatant was then transferred to another sterile centrifuge tube, and the cell concentration adjusted to 2×10^6 cells/ml dilution with TCM.
(§2) Determination of mycalamide A toxicity. The toxicity of mycalamide A on murine splenocytes and human PBL was determined using a colorimetric assay, based on the ability of viable cells to convert the colorless tetrazolium salt, 3-(4,5-dimethylthiazol-2yl)-2,5-diphenyl tetrazolium bromide (MTT) to a colored formazan product and trypan blue exclusion. For the colorimetric assay, a volume of 0.075 ml of an MTT solution (550 μg/ml of MTT in TCM) was added to test and control wells containing one of the populations of splenocytes or test wells and incubated for 5-6 hours following the initial incubation period. Microtiter plates were centrifuged at 100× g, supernatants carefully removed, and a volume of 0.20 ml of isopropyl alcohol was added to each well to dissolve the formazan crystals. The absorbance at 570 nm was determined for each well using an ELISA plate reader. […] As an additional parameter of toxicity, wells containing cultured lymphocytes with various dilutions of mycalamide A were examined with trypan blue, and the percentage of dye-excluding (viable) cells was determined.

[1] = T cell viability by trypan blue exclusion; format: cell-based, murine; details: t cells, read-out: percentage of trypan blue-positive cells
Experimental: as §2
(§3) Compounds were added as indicated. Cells were harveste
(§4) Each data point represents the mean value o

T cells = assay: T cell viability by trypan blue exclusion; format: cell-based, murine
Experimental: as §2, §3, §4

[2] = tested on: two-way murine mixed lymphocyte response (C57BL/6J and BALB/c splenocytes); assay: Two-way murine mixed lymphocyte reaction (MLR), 3H-thymidine incorporation; format: cell-based
Experimental: as §1
Two way mixed lymphocyte reaction (MLR). The immunosuppressive properties of mycalamide A were evaluated using the two-way MLR, utilizing murine splenocytes and human PBL. For the murine MLR, splenocytes from C57Bl/6J and BALB/c mice were prepared as described above, and a volume of […] of each cell suspension was added together to test and control wells of microtiter plates. Wells containing 0.20 ml of each cell suspension alone served as controls.
Dilutions of the drug to be tested were prepared in absolute EtOH and further diluted to the appropriate concentration in TCM and added directly to the wells containing splenocyte combinations. Additional solvent (EtOH) control wells were also prepared by adding the equivalent percentage of EtOH to each culture well. Plates were incubated at 37° C. in a 5% CO2 humidified atmosphere for 88 hours. Following the incubation, 1.0 μCi of ^3 H-thymidine was added to each well, and the plates were returned to the incubator for 5 hours. The contents of each well were harvested onto glass-fiber filter strips, and the incorporation of ^3 H-thymidine was determined by a liquid scintillation counter. Similar conditions were utilized for MLR cultures using human peripheral blood lymphocytes prepared from unrelated donors as described above, with the exception that the initial incubation and subsequent ^3 H-thymidine pulse times were different (114 hours for initial incubation followed by a 6-hour incubation with ^3 H-thymidine). Plates were harvested in a similar manner, and ^3 H-thymidine incorporation determined as described above.

[3] = tested on: human peripheral blood lymphocytes (PBL); assay: Mitogen-induced proliferation of human peripheral blood lymphocytes; format: cell-based; details: Lymphocyte; for activity at 0.5 µg/mL: 5.0 × 10^-1 μg/ml; for activity at 0.05 µg/mL: 5.0 × 10^-2 μg/ml; for activity at 0.005 µg/mL: 5.0 × 10^-3 μg/ml; for activity at 0.0005 µg/mL: 5.0 × 10^-4 μg/ml; for activity at 50 pg/mL: 5.0 × 10^-5 μg/ml; for activity at 5 pg/mL: 5.0 × 10^-6 μg/ml; for activity at 500 fg/mL: 5.0 × 10^-7 μg/ml; for activity at 50 fg/mL: 5.0 × 10^-8 μg/ml; for activity at 5 fg/mL: 5.0 × 10^-9 μg/ml; for activity at 5e-10 µg/mL: 5.0 × 10^-10 μg/ml; for activity at 5e-11 µg/mL: 5.0 × 10^-11 μg/ml
Experimental: Preparation of human peripheral blood leukocyte (PBL) suspensions. Human peripheral blood suspensions were prepared from Leukotrap blood filters as follows: Leukotrap filters containing processed leukocytes from random, unrelated blood donors were obtained from the Indian River Blood Bank (Vero Beach, Fla.). Buffy-coat blood cell suspensions were recovered by reverse-flow phosphate-buffered saline purging and centrifugation for 15 minutes at 475× g. Buffy coats were removed, and 5 ml of the suspension was layered onto 5 ml of Histopaque gradient material. The Histopaque gradients were centrifuged at 475× g for 30 minutes. Lymphocytes were removed from the Histopaque-medium interface, and washed twice with 10 ml of PBS (Dulbecco's phosphate-buffered saline without CaCl2 and MgCl2.6H2 O). The final cell pellet was resuspended in TCM, and the cell concentration adjusted to 2×10^6 cells/ml.

[4] = Con A, read-out: Con A, % of control
[5] = PHA, read-out: PHA, % of control

SMILES: C=C1CC(OC)(C(O)C(=O)NC2OCOC3C2OC(CC(O)CO)C(C)(C)C3OC)OC(C)C1C (centres unmarked) [Mycalamide A, mycalamide A]
- toxicity by LCV assay (murine splenocytes; 5×10^-5 μg/ml): no toxicity
- toxicity to the cells (murine splenocytes; greater than 5×10^-5 μg/ml): toxic to the cells
- cytotoxicity at 20 h, 1e-06 µM ([1]; 1 pM, Experiment 1, 20 hours): < 2%
- cytotoxicity at 20 h, 5e-06 µM ([1]; 5 pM, Experiment 1, 20 hours): < 2%
- cytotoxicity at 20 h, 1e-05 µM ([1]; 10 pM, Experiment 2, 20 hours): < 2%
- number of cells excluding trypan blue (T cells; 1 pM, Experiment 1, 20 hours): 1.39 × 10^6 cells
- number of cells excluding trypan blue (T cells; 1 pM, Experiment 2, 20 hours): 1.45 × 10^6 cells
- percentage of trypan blue-positive cells (T cells; 1 pM, Experiment 2, 20 hours): < 2%
- number of cells excluding trypan blue (T cells; 5 pM, Experiment 1, 20 hours): 1.41 × 10^6 cells
- number of cells excluding trypan blue (T cells; 5 pM, Experiment 2, 20 hours): 1.68 × 10^6 cells
- percentage of trypan blue-positive cells (T cells; 5 pM, Experiment 2, 20 hours): < 2%
- number of cells excluding trypan blue (T cells; 10 pM, Experiment 2, 20 hours): 1.49 × 10^6 cells
- effect on T cell viability (T cells; trypan blue exclusion, in words): did not significantly affect the cell viability
- activity at 5 µg/mL ([2]; Mus musculus, Splenocyte, 5.0 × 10^0 μg/ml, read-out: % of Positive Control MLR): 0%
- activity at 50 µg/mL ([2]; Mus musculus, Splenocyte, 5.0 × 10^1 μg/ml, read-out: % of Positive Control MLR): 0%
- activity at 500 µg/mL ([2]; Mus musculus, Splenocyte, 5.0 × 10^2 μg/ml, read-out: % of Positive Control MLR): 0%
- activity at 0.5 µg/mL ([2]; Mus musculus, Splenocyte, 5.0 × 10^-1 μg/ml, read-out: % of Positive Control MLR): 0%
- activity at 0.05 µg/mL ([2]; Mus musculus, Splenocyte, 5.0 × 10^-2 μg/ml, read-out: % of Positive Control MLR): 0%
- activity at 0.005 µg/mL ([2]; Mus musculus, Splenocyte, 5.0 × 10^-3 μg/ml, read-out: % of Positive Control MLR): 0%
- activity at 0.0005 µg/mL ([2]; Mus musculus, Splenocyte, 5.0 × 10^-4 μg/ml, read-out: % of Positive Control MLR): 0%
- activity at 50 pg/mL ([2]; Mus musculus, Splenocyte, 5.0 × 10^-5 μg/ml, read-out: % of Positive Control MLR): 0%
- activity at 5 pg/mL ([2]; Mus musculus, Splenocyte, 5.0 × 10^-6 μg/ml, read-out: % of Positive Control MLR): 0%
- activity at 500 fg/mL ([2]; Mus musculus, Splenocyte, 5.0 × 10^-7 μg/ml, read-out: % of Positive Control MLR): 0%
- activity at 50 fg/mL ([2]; Mus musculus, Splenocyte, 5.0 × 10^-8 μg/ml, read-out: % of Positive Control MLR): 0%
- activity at 5 fg/mL ([2]; Mus musculus, Splenocyte, 5.0 × 10^-9 μg/ml, read-out: % of Positive Control MLR): 0%
- activity at 5e-10 µg/mL ([2]; Mus musculus, Splenocyte, 5.0 × 10^-10 μg/ml, read-out: % of Positive Control MLR): 0%
- activity at 5e-11 µg/mL ([2]; Mus musculus, Splenocyte, 5.0 × 10^-11 μg/ml, read-out: % of Positive Control MLR): 0%
- activity at 5e-12 µg/mL ([2]; Mus musculus, Splenocyte, 5.0 × 10^-12 μg/ml, read-out: % of Positive Control MLR): 0%
- activity at 5e-13 µg/mL ([2]; Mus musculus, Splenocyte, 5.0 × 10^-13 μg/ml, read-out: % of Positive Control MLR): 0%
- activity at 5e-14 µg/mL ([2]; Mus musculus, Splenocyte, 5.0 × 10^-14 μg/ml, read-out: % of Positive Control MLR): 0%
- activity at 5e-15 µg/mL ([2]; Mus musculus, Splenocyte, 5.0 × 10^-15 μg/ml, read-out: % of Positive Control MLR): 0%
- activity at 5e-16 µg/mL ([2]; Mus musculus, Splenocyte, 5.0 × 10^-16 μg/ml, read-out: % of Positive Control MLR): 0%
- activity at 5e-17 µg/mL ([2]; Mus musculus, Splenocyte, 5.0 × 10^-17 μg/ml, read-out: % of Positive Control MLR): 85%
- activity at 5e-18 µg/mL ([2]; Mus musculus, Splenocyte, 5.0 × 10^-18 μg/ml, read-out: % of Positive Control MLR): 82%
- activity at 5e-19 µg/mL ([2]; Mus musculus, Splenocyte, 5.0 × 10^-19 μg/ml, read-out: % of Positive Control MLR): 128%
- range of concentrations that suppressed the MLR ([2]; murine): 5×10^2 to 5×10^-16 μg/ml
- activity at 0.5 µg/mL [3, 4]: 0%
- activity at 0.05 µg/mL [3, 4]: 0%
- activity at 0.005 µg/mL [3, 4]: 0%
- activity at 0.0005 µg/mL [3, 4]: 10%
- activity at 50 pg/mL [3, 4]: 44%
- activity at 5 pg/mL [3, 4]: 74%
- activity at 500 fg/mL [3, 4]: 78%
- activity at 50 fg/mL [3, 4]: 82%
- activity at 5 fg/mL [3, 4]: 90%
- activity at 5e-10 µg/mL [3, 4]: 99%
- activity at 5e-11 µg/mL [3, 4]: 93%
- activity at 0.5 µg/mL [3, 5]: 0%
- activity at 0.05 µg/mL [3, 5]: 0%
- activity at 0.005 µg/mL [3, 5]: 0%
- activity at 0.0005 µg/mL [3, 5]: 9%
- activity at 50 pg/mL [3, 5]: 41%
- activity at 5 pg/mL [3, 5]: 41%
- activity at 500 fg/mL [3, 5]: 40%
- activity at 50 fg/mL [3, 5]: 43%
- activity at 5 fg/mL [3, 5]: 42%
- activity at 5e-10 µg/mL [3, 5]: 36%
- activity at 5e-11 µg/mL [3, 5]: 47%
- IC50 ([3]; read-out: IC50, PHA stimulation of human PBL): ~0.0057 ng/mL (≈ 0.0113 nM)
